These results are taken from PubChem BioAssay AID1963597 (National Center for Advancing Translational Sciences (NCATS), 2024).

The structures appear in SMILES notation.

The test system of the series is human liver microsomes, metabolic stability half-life. Kind of series: NCATS Human Liver Microsomal (HLM) Stability Profiling. As to conditions: higher = more stable; screened at 1 µM (by protocol). In short, it runs like this: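 Half-life derived from parent loss over 0–60 min (0, 5, 10, 15, 30, 60 min) at 37 °C. Incubations: 0.5 mg/mL microsomes, 1 µM test article, NADPH regeneration, pH 7.4 phosphate; quenched in acetonitrile containing albendazole, analysed by MS.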
As to `C#C[C@]1(OC(C)=O)CC[C@H]2[C@@H]3CCC4=C/C(=N/O)CC[C@@H]4[C@H]3CC[C@@]21CC`, the half-life (usually the time needed for the level to fall by half in the phase considered) stood at 6.21 min.
Under `Cc1cccc(C)c1NC(=O)c1ccccc1C(=O)O` stands > 120 min.
Under `C[C@@H]1O[C@@H](O[C@H]2C[C@@H](O)[C@]3(CO)[C@H]4[C@H](O)C[C@]5(C)[C@@H](C6=CC(=O)OC6)CC[C@]5(O)[C@@H]4CC[C@]3(O)C2)[C@H](O)[C@H](O)[C@H]1O` stands > 120 min; under `O=C(O)CC1CCC(c2ccc(-c3ccc(Nc4ccc(C(F)(F)F)nc4)cn3)cc2)CC1` (stereo unspecified), > 120 min; under `CN1CCN(C2CCC(n3cc(-c4ccc(Oc5ccccc5)cc4)c4c(N)ncnc43)CC2)CC1` (stereo unspecified), 58.6 min.
Regarding `COc1ccc(C(=O)NC2CCN(c3cnn(CC4CC4)c(=O)c3)CC2)c(OC)n1`, the half-life was > 120 min.
Under `COCC(C)N(C(=O)CCl)c1c(C)csc1C` (stereo unspecified) stands 10.9 min.
Under `COc1cc(OC)cc(OC)c1` stands 18.1 min; under `CCNc1nc(Cl)nc(NCC)n1`, 59.4 min.
Under `CCCCC(=O)O[C@]1(C(=O)CO)[C@@H](C)C[C@H]2[C@@H]3CCC4=CC(=O)C=C[C@]4(C)[C@@]3(F)[C@@H](O)C[C@@]21C` stands 4.35 min; under `CNc1ccc2oc(C[C@H]3O[C@@]4(CC[C@H]3C)O[C@H](C(C)C(=O)c3ccc[nH]3)[C@H](C)C[C@H]4C)nc2c1C(=O)O` (stereo partly specified), > 120 min.
Turning to `O=C(Nc1ccccc1Br)NC1CCN(c2ccc(C(F)(F)F)cn2)C1` (stereo unspecified), the half-life was found to be 120 min.
For `COc1cc(N2CCOCC2)ccc1NC(=O)c1csc(-c2cccnc2)n1` the value was 30.2 min; for `Cc1cccc(N(C)C(=S)Oc2ccc3c(c2)CCC3)c1`, 1.94 min; for `O=C(c1ccc(F)cc1)N1CCC(C(=O)N2CCC(N3Cc4ccccc4C3=O)CC2)CC1`, > 120 min.
Regarding `CN1CCN(C(=O)Cc2cccn2-c2ccc(F)cc2)CC1`, the half-life is > 120 min.
Under `CN1CCC2=C(C1)c1ccccc1Cc1ccccc12` stands 95 min.
For `O=C(O)c1cccc(-c2noc(-c3ccccc3F)n2)c1`, the half-life was > 120 min.
Under `CCOP(=S)(OCC)Oc1ccc2c(C)c(Cl)c(=O)oc2c1` stands 5.07 min.
Under `COCCn1c(SCC(=O)Nc2ccc(F)c(Cl)c2)nc2c(oc3ccccc32)c1=O` stands 7.26 min; under `CCC[C@H](N[C@H]1CCc2cc(F)cc(F)c2C1)C(=O)Nc1cn(C(C)(C)CNCC(C)(C)C)cn1`, 3.12 min.
